Patent publication KR20210056931A, “피리메타민을 유효성분으로 포함하는 면역 관련 질환의 치료 또는 예방용 약학 조성물” (priority 2019, dated 2021)

Assays:
[1] = system: rheumatoid arthritis model, DBA-1J Mice [류마티스 관절염 모델]; assay: Arthritis score in rheumatoid arthritis animal model, Experiment 5; type: in vivo, mouse
TNF-α [2] = assay: TNF-α expression inhibition in Raw264.7 by treatment time, Experiment 1-2; type: cell-based; details: LPS 100 ng/ml
[3] = system: rheumatoid arthritis model, DBA-1J Mice [류마티스 관절염 모델]; assay: Histopathological examination in rheumatoid arthritis animal model, Experiment 5; type: in vivo, mouse; details: Day 14
TNF-α [4] = assay: TNF-α expression inhibition in Raw264.7, comparison with hydroxychloroquine and proguanil, Experiment 2-3; type: cell-based
[5] = system: rheumatoid arthritis model, DBA-1J Mice [류마티스 관절염 모델]; assay: Paw edema in rheumatoid arthritis animal model, Experiment 5; type: in vivo, mouse
NF-ĸB(p65) = assay: NF-kB activity (p65 nuclear translocation) in Raw264.7, Experiment 4; type: cell-based; details: 50 ng/ml, 2 h pretreatment; LPS 100 ng/ml 2 h; Fig. 7
TNF-α [6] = assay: Plasma TNF-α (ELISA), Experiment 6-5; type: in vivo, mouse; details: for Plasma TNF-α: Day 14
TNF-α [7] = assay: TNF-α expression inhibition in Raw264.7, comparison with DMARDs, Experiment 2-1; type: cell-based; details: for TNF-α expression: 6 h pretreatment, LPS 10 ng/mL, MTX 344 nM, HCQ 610 nM, PYR 50 ng/mL, CsA 391 ng/mL, AZA 25 ng/mL, SFZ 750 ng/mL

Structure (SMILES): CCc1nc(N)nc(N)c1-c1ccc(Cl)cc1 [피리메타민, Pyrimethamine]
- Arthritis score ([1]; Day 0, G4: Py 10 mg/kg/day PO): 2.3±1.6 Total score
- Arthritis score ([1]; Day 0, G5: Py 30 mg/kg/day PO): 2.3±1.4 Total score
- Arthritis score ([1]; Day 2, G4: Py 10 mg/kg/day PO): 4.0±1.6 Total score
- Arthritis score ([1]; Day 2, G5: Py 30 mg/kg/day PO): 2.7±1.8 Total score
- Arthritis score ([1]; Day 4, G4: Py 10 mg/kg/day PO): 4.6±1.8 Total score
- Arthritis score ([1]; Day 4, G5: Py 30 mg/kg/day PO): 4.0±2.7 Total score
- Arthritis score ([1]; Day 7, G4: Py 10 mg/kg/day PO): 5.4±2.4 Total score
- Arthritis score ([1]; Day 7, G5: Py 30 mg/kg/day PO): 4.0±2.7 Total score
- Arthritis score ([1]; Day 9, G4: Py 10 mg/kg/day PO): 6.1±2.5 Total score
- Arthritis score ([1]; Day 9, G5: Py 30 mg/kg/day PO): 5.3±1.6 Total score
- Arthritis score ([1]; Day 11, G4: Py 10 mg/kg/day PO): 6.7±2.1 Total score
- Arthritis score ([1]; Day 11, G5: Py 30 mg/kg/day PO): 5.4±1.5 Total score
- Arthritis score ([1]; Day 14, G4: Py 10 mg/kg/day PO): 7.3±2.1 Total score
- Arthritis score ([1]; Day 14, G5: Py 30 mg/kg/day PO): 5.6±1.4 Total score
- Arthritis score (in words) ([1]; pyrimethamine groups, 10 and 30 mg/kg/day PO): 관절염 지수가 현저하게 감소
- Arthritis score compared with methotrexate (in words) ([1]; pyrimethamine high dose (30 mg/kg/day) PO): 메토트렉세이트 투여군에 비해 관절염 지수가 현저하게 낮은
- TNF-α expression, concentration dependence (TNF-α [2]; 2 or 50 ng/ml, 1 or 2 h): TNF-α의 발현량이 피리메타민의 농도 의존적으로 줄어드는
- TNF-α expression (TNF-α [2]; PYR 2 ng/ml, 1hr): 916.0 pg/mL
- TNF-α expression (TNF-α [2]; PYR 2 ng/ml, 2hr): 1101.2 pg/mL
- TNF-α expression (TNF-α [2]; PYR 50 ng/ml, 1hr): 686.4 pg/mL
- TNF-α expression (TNF-α [2]; PYR 50 ng/ml, 2hr): 889.0 pg/mL
- Bone destruction ([3]; G4: Py 10 mg/kg/day PO): 0.9±0.9
- Cartilage damage ([3]; G4: Py 10 mg/kg/day PO): 1.3±1.0
- Histopathological examination, total ([3]; G4: Py 10 mg/kg/day PO): 3.6±2.7
- Synovium proliferation ([3]; G4: Py 10 mg/kg/day PO): 1.4±1.1
- Bone destruction ([3]; G5: Py 30 mg/kg/day PO): 0.4±0.8
- Cartilage damage ([3]; G5: Py 30 mg/kg/day PO): 0.3±0.5
- Histopathological examination, total ([3]; G5: Py 30 mg/kg/day PO): 1.1±1.5
- Synovium proliferation ([3]; G5: Py 30 mg/kg/day PO): 0.4±0.8
- Efficacy by histopathology compared with methotrexate (in words) ([3]; Py 10 and 30 mg/kg/day PO): 메토트렉세이트와 비교할 때에도 보다 우수한 효과
- Therapeutic efficacy by histopathology (in words) ([3]; Py 10 and 30 mg/kg/day PO): 농도 의존적으로 치료 효능을 보였으며
- TNF-α expression (TNF-α [4]; PY 0.2 uM, HCQ 0.61 uM, PG 5 uM, LPS 10 ng/mL, 24 h co-treatment): 667.9
- TNF-α expression inhibition (TNF-α [4]; drug treatment 2 h or 24 h, pyrimethamine 0.2 μM, proguanil 5 μM): 히드록시클로로퀸과 비교하였을 때 피리메타민의 TNF-α 발현량 억제능이 월등함
- Paw edema, LEFT ([5]; Day 0, G4: Py 10 mg/kg/day PO): 0.11 ± 0.01 mL
- Paw edema, RIGHT ([5]; Day 0, G4: Py 10 mg/kg/day PO): 0.10 ± 0.00 mL
- Paw edema, LEFT ([5]; Day 0, G5: Py 30 mg/kg/day PO): 0.11 ± 0.02 mL
- Paw edema, RIGHT ([5]; Day 0, G5: Py 30 mg/kg/day PO): 0.10 ± 0.01 mL
- Paw edema, LEFT ([5]; Day 14, G4: Py 10 mg/kg/day PO): 0.15 ± 0.03 mL
- Paw edema, RIGHT ([5]; Day 14, G4: Py 10 mg/kg/day PO): 0.12 ± 0.01 mL
- Paw edema, LEFT ([5]; Day 14, G5: Py 30 mg/kg/day PO): 0.11 ± 0.03 mL
- Paw edema, RIGHT ([5]; Day 14, G5: Py 30 mg/kg/day PO): 0.11 ± 0.02 mL
- NF-ĸB(p65) activity (NF-ĸB(p65)): NF-ĸB(p65)의 활성이 현저히 저하
- Plasma TNF-α (TNF-α [6]; G7: Py 1 mg/kg/day QD IP): 879.4 pg/mL
- Plasma TNF-α (TNF-α [6]; G8: Py 1 mg/kg/day BID PO): 867.2 pg/mL
- Plasma TNF-α (TNF-α [6]; G9: Py 1 mg/kg/day QD PO): 863.5 pg/mL
- Plasma TNF-α (TNF-α [6]; G10: Py 3 mg/kg/day BID PO): 818.8 pg/mL
- Plasma TNF-α (TNF-α [6]; G11: Py 5 mg/kg QD PO): 763.7 pg/mL
- Plasma TNF-α (TNF-α [6]; G12: Py 15 mg/kg/day QD PO): 728.0 pg/mL
- Plasma TNF-α (in words) (TNF-α [6]; pyrimethamine oral groups): 농도 의존적으로 혈장 TNF-α 수치가 감소
- TNF-α expression (TNF-α [7]; 2hr): 101.3 pg/mL
- TNF-α expression (TNF-α [7]; 24hr): 963.4 pg/mL
- TNF-α expression inhibition compared with comparative examples (TNF-α [7]; drug treatment 8 h or 24 h, pyrimethamine 50 ng/ml): 비교예들에 비해 TNF-α의 발현량을 월등히 억제하였고
